Experimental data taken from article PMC4229098, “Alzheimer's Therapeutics Targeting Amyloid Beta 1–42 Oligomers I: Abeta 42 Oligomer Binding to Specific Neuronal Receptors Is Displaced by Drug Candidates That Improve Cognitive Deficits” (PLoS ONE, 2014).
“Also recorded” adds a separate entry of the source. Where two headings read alike, the source gives them in different places.

Legend:
[1] = tested on: mature primary hippocampal and cortical cultures; assay: Membrane trafficking assay (MTT formazan exocytosis); type: cell-based, rat; settings: for Treatment duration for maximum response: Abeta preparation dosed alone; for activity in blocking effects of Abeta oligomers: control compounds; for Schild slope: against synthetic oligomers; for reversal of trafficking deficit caused by human patient derived Abeta: compound 0.2 µM, Abeta 1.5 pM; for effect on trafficking of compound alone: no Abeta;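 for all read-outs here: mixed neuron and glia cultures from E18 Sprague-Dawley rat embryos, grown 3 weeks in 384-well plates, labeled vesicles quantified by imaging or spectrophotometry as percent of vehicle-treated wells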
Abeta 1–42 oligomers = target: T1, Abeta 1–42 oligomers (Homo sapiens, UniProt P05067); assay: Oligomer-specific Abeta ELISA (direct action on oligomers); type: biochemical
T1 construct: purchased California Peptide Inc; American Peptide Company; or University of Pittsburgh Peptide Core facility 641-15; 62-0-80; host or cells: chemical synthesis
T1 sequence (P05067 672-713): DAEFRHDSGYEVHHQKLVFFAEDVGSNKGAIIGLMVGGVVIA
Procedure: Determination of oligomeric and monomeric concentrations of Abeta contained in a given Abeta preparation was done according to the method of LeVine. Briefly, total Abeta concentration is measured by two-site ELISA using different capture (6E10 monoclonal antibody, Covance SIG-39320) and detection (4G8- conjugated to biotin, Covance, SIG39240) antibodies and quantifyied with streptavidin-horseradish peroxidase (Millipore catalog number AP308P). Oligomerized Abeta is measured in the same samples by a single-site ELISA in which monoclonal antibodies to the same epitope are used for capture (4G8, Covance SIG-39330) and detection (4G8-biotin). The 4G8-biotin cannot bind to captured monomer because the epitope is blocked by the capture antibody, so only oligomers are detected with this configuration. The streptavidin-horseradish peroxidase therefore reports only oligomeric Abeta which has additional exposed 4G8 epitopes. Monomer concentration is calculated as the difference between total Abeta concentration and oligomer concentration.

[2] = tested on: synaptophysin-immunopositive puncta along MAP2-labeled neurites; assay: Synapse counting assay; type: cell-based, rat; settings: for Affects Synapse density in the absence of Aβ: Table S1
Procedure: Sprague-Dawley rats, 18 days pregnant, were euthanized by CO2 asphyxiation followed by cervical dislocation, and embryos were removed. Hippocampus and cortical tissue from the embryo brains were digested in 2.5% Trypsin (Life Technologies) to dissociate cells. Isolated cells were plated at a density of 4.6×10^4 cells per cm^2 in 384-well poly-D Lysine coated plates (Greiner) in Neurobasal Media (Life Technologies) supplemented with B27 (Life Technologies), Glutamax (Life Technologies) and antibiotics (penicillin, 50 units/ml and streptomycin 50 µg/ml, Life Technologies). Cultures were maintained at 37°C in 5% CO2 with weekly media change for 3 weeks prior to experimentation. These mixed cultures of hippocampal plus cortical neurons and glia were used for all of the in vitro experiments described.
Cultures were treated with compounds for 60 minutes prior to addition of 6 µM (maximum from trafficking dose-response curve) of synthetic Abeta 1–42 oligomers and incubated for 24 hrs. Cultures were fixed and immunofluorescently labeled and imaged as for the Abeta binding assay. The ThermoFisher/Cellomics Neuronal Profiling bioapplication was used to count synaptophysin-immunopositive puncta along MAP2-labeled neurites. The number of puncta per unit length of neurites was used to determine effects of treatments. To attain statistical power of 80% and a p value of less than 0.05 (determined using G*Power software), twenty replicate wells were treated per experiment plate and compared to control wells on the same plate and experiments were repeated four times.

[3] = tested on: mouse models of Alzheimer's disease; assay: Behavioral tests (behavioral efficacy summary); type: in vivo, mice; parameters: key to Measured efficacy: statistically significant improvement (+); no significant improvement (-); settings: for Behavioral efficacy: Table S1
Excerpt: (§1) All procedures were approved by the Institutional Animal Care and Use and Committee at Columbia University and Stanford University and were in compliance with the Office of Laboratory Animal Welfare and the Guide for the Care and Use of Laboratory Animals, Eighth Edition. Behavioral testing of wild-type, 3–4 month old, male, C57/BL6 mice, injected bilaterally into their hippocampus with Abeta oligomers and testing in the fear conditioning task was done according to published methods. Animals were anesthetized with […] Avertin prior to implantation of cannulas into the hippocampus. Testing of transgenic hAPP Swedish/London mice in the Morris water maze or fear conditioning tasks was done according to published methods, [38]. To measure brain concentration of drugs, brains were homogenized in 1 ml PBS per gram of brain tissue using a handheld homogenizer. Brain homogenate was then extracted with three volumes of ice cold methanol on ice for 15 minutes and centrifuged for 15 min. The supernates were analyzed by LC/MS/MS. Samples were compared to a calibration curve prepared in a similar manner by spiking blank control homogenate with standards prepared in DMSO and then extracted as above. At the end of all behavioral testing, animals were euthanized with CO2 followed by cervical dislocation.

[4] = tested on: C57/BL6 mice injected with Abeta oligomers; assay: Contextual fear conditioning after intrahippocampal Abeta oligomer injection; type: in vivo; settings: 2 µM intrahippocampal; for prevention of Abeta oligomer-induced fear memory deficits: one hour prior to oligomer injection; for effect on fear memory when administered alone: without Abeta
Excerpt: as §1

[5] = tested on: hAPP Swe/Ldn transgenic mice; assay: Contextual fear conditioning in transgenic mice; type: in vivo; settings: 5.5 months, 9 month old males
Excerpt: as §1

[6] = Brain concentration of compounds (LC/MS/MS); type: in vivo, mice; settings: mouse, 24 h after last dose, read-out: Compound Concentration in brain
Excerpt: as §1

sigma-2/PGRMC1 receptor = target: T2, sigma-2/PGRMC1 receptor (Homo sapiens, UniProt Q5BJF2); assay: Sigma-2 radioligand binding; settings: radioligand competition binding; read-out: Ki, binding affinity at the sigma-2/PGRMC1 receptor
T2 construct: endogenous in cells; host or cells: human Jurkat cells (membranes)
T2 sequence (Q5BJF2 whole entry): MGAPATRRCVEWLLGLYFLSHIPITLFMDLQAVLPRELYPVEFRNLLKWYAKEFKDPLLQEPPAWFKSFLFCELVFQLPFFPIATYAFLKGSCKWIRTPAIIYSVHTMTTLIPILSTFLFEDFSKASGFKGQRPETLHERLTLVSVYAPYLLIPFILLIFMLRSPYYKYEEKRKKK
Procedure: Radioligand competition assays were performed in membranes from human Jurkat cells using 5 nM [^3H]1,3-di(2-tolyl) guanidine in the presence of 1 µM (+)-pentazocine with 10 µM haloperidol to define non-specific binding.

[7] = tested on: neuronal synaptic puncta in hippocampal/cortical cultures; assay: Abeta binding assay, neurons (immunofluorescence of neurite puncta); parameters: species or system rat; settings: for displacement of Abeta oligomers: 15 µM compound added 1 hour after oligomers 0.5 µM, within 1 hour; for prevention of binding of Abeta oligomers to neuronal cultures: 15 µM compound one hour prior to synthetic Abeta oligomers 0.5 µM; for EC50: single site model
[8] = tested on: hAPP Swe/Ldn transgenic mice; assay: Morris water maze probe trial; type: in vivo; settings: 42 days
Excerpt: as §1

[9] = preparation dosed alone, read-out: EC50 of Abeta preparation
[10] = Rattus norvegicus, compound added 1 hr prior to Abeta oligomers, log value, read-out: Prevention Log EC50 ± SE (converted)
[11] = Rattus norvegicus, compound added 1 hr prior to synthetic Abeta oligomers, read-out: Prevention EC50
[12] = hAPP Swe/Ldn transgenic, 10 mg/kg/day once daily oral gavage
[13] = hAPP Swe/Ldn transgenic, 30 mg/kg/day once daily oral gavage
[14] = Rattus norvegicus, 1 h, compound added 1 hr after Abeta oligomers, log value, read-out: Treatment Log EC50 ± SE (converted)
[15] = Rattus norvegicus, 1 h, compound added 1 hr after synthetic Abeta oligomers, read-out: Treatment EC50
[16] = 1 mg/kg/day s.c. osmotic minipump
[17] = 10 mg/kg/day s.c. osmotic minipump
[18] = hAPP Swedish/London transgenic, subcutaneous, 1 mg/kg/day s.c. osmotic minipump
[19] = hAPP Swedish/London transgenic, subcutaneous, 10 mg/kg/day s.c. osmotic minipump

## semi-synthetic oligomers: Abeta 1–42 monomers incubated in size excluded rat brain homogenate, immunoprecipitated with 6E10 [reference compound]
[1]
  Treatment duration for maximum response: 1 h
[1]; [9]
  EC50: 0.0059 µM

## O[C@H]1[C@H](O)[C@@H](O)[C@H](O)[C@@H](O)[C@@H]1O [scyllo-inositol, reference compound]
[1]
  activity in blocking effects of Abeta oligomers: only memantine was active

## Oc1cccc2cccnc12 [8-OH quinoline, reference compound]
Abeta 1–42 oligomers
  dissociation of preformed oligomers: dissociated

## COc1ccc(CCC(C)NC2CCCc3ccccc32)cc1 (stereo not drawn) [CT01206]
[2]
  Affects Synapse density in the absence of Aβ: Yes
[3]
  Behavioral efficacy: No
[1]; [10]
  EC50: 4.37 µM
[1]; [11]
  EC50: 4.3 µM
[4]
  prevention of Abeta oligomer-induced fear memory deficits: not effective
  effect on fear memory when administered alone: caused fear memory deficits in the absence of Abeta

## C[C@]12N[C@H](Cc3ccccc31)c1ccccc12 [MK-801, reference compound]
[1]
  activity in blocking effects of Abeta oligomers: only memantine was active

## C[C@H](CCc1ccc(Cl)c(Cl)c1)NCc1ccc(C(F)(F)F)cc1 [CT01344]
[2]; 15 µM
  restoration of synapse loss induced by Abeta: 100%
[2]
  Affects Synapse density in the absence of Aβ: No
[5]; 10 mg/kg/day p.o.
  contextual fear memory performance: significantly improved fear memory performance
[5]; 30 mg/kg/day p.o.
  contextual fear memory performance: significantly improved fear memory performance
[3]; 10 mg/kg/day oral gavage
  Measured efficacy: +
[3]; 30 mg/kg/day oral gavage
  Measured efficacy: +
[3]
  Behavioral efficacy: Yes
[6]; [12]
  concentration at 24 h: 0.394 µM
[6]; [13]
  concentration at 24 h: 0.793 µM
[1]; [14]
  EC50: 6.46 µM
[1]; [15]
  EC50: 7.3 µM
[1]; [10]
  EC50: 8.71 µM
[1]; [11]
  EC50: 8.7 µM
[1]
  Schild slope: 1
sigma-2/PGRMC1 receptor
  Ki: 0.048 µM
[7]
  displacement of Abeta oligomers: 66±14%
  prevention of binding of Abeta oligomers to neuronal cultures: 94%±4%
[7]; displacement of pre-bound oligomers, read-out: IC50, Abeta binding, treatment
  IC50: 3.9 µM
[7]; read-out: EC50, displacement of pre-bound Abeta binding
  EC50: 3.9 ± 1.8 µM

## CC(C)=CC(C[C@H](C)c1ccc(C)cc1)NCC(C)C (stereo partly drawn) [CT0093]
[2]
  Affects Synapse density in the absence of Aβ: No
[3]; [16]
  Measured efficacy: -
[3]; [17]
  Measured efficacy: +
[3]
  Behavioral efficacy: Yes
[6]; [18]
  concentration at 24 h: 0.064 µM
[6]; [19]
  concentration at 24 h: 0.555 µM
[1]; [10]
  EC50: 4.9 µM
[1]; [11]
  EC50: 4.9 µM
[1]; Rattus norvegicus, compound added 1 hr after Abeta oligomers, log value, read-out: Treatment Log EC50 ± SE (converted)
  EC50: 2 µM
[1]; Rattus norvegicus, compound added 1 hr after synthetic Abeta oligomers, read-out: Treatment EC50
  EC50: 2 µM
[1]
  Schild slope: 1
  reversal of trafficking deficit caused by human patient derived Abeta: reverse the trafficking deficit
  effect on trafficking of compound alone: without affecting trafficking on their own
sigma-2/PGRMC1 receptor
  Ki: 0.054 µM
[4]
  prevention of Abeta oligomer-induced fear memory deficits: completely prevented fear memory deficits
  effect on fear memory when administered alone: no effect on memory
Abeta 1–42 oligomers
  dissociation of preformed oligomers: not by CT0109 or CT0093
[7]
  displacement of Abeta oligomers: 49±5%
  prevention of binding of Abeta oligomers to neuronal cultures: 93%±2%
[7]; compound before oligomers, read-out: IC50, Abeta binding, prevention
  IC50: 2.2 µM
[7]; pretreatment, read-out: EC50, prevention of Abeta binding
  EC50: 2.2 ± 2.4 µM

## C[C@H](CCc1ccc(Cl)cc1)NCc1ccc(C(F)(F)F)cc1 [CT01346]
[2]
  Affects Synapse density in the absence of Aβ: No
[8]; 30 mg/kg/day oral, eleven month-old females
  spatial memory retrieval performance, transgenic animals: significantly improves spatial memory retrieval performance
[8]; 30 mg/kg/day p.o.
  behavior of treated nontransgenic animals: behaved similarly to vehicle-treated wild-type animals
[5]; 30 mg/kg/day p.o.
  contextual fear memory performance: significantly improved fear memory performance
[3]; 10 mg/kg/day oral gavage
  Measured efficacy: -
[3]; 30 mg/kg/day oral gavage
  Measured efficacy: +
[3]
  Behavioral efficacy: Yes
[6]; [12]
  concentration at 24 h: 0.054 µM
[6]; [13]
  concentration at 24 h: 0.33 µM
[1]; [14]
  EC50: 8.71 µM
[1]; [15]
  EC50: 8.7 µM
[1]; [10]
  EC50: 9.33 µM
[1]; [11]
  EC50: 9.4 µM
[1]
  Schild slope: 1
sigma-2/PGRMC1 receptor
  Ki: 0.05 µM
[7]
  displacement of Abeta oligomers: 93±13%
  prevention of binding of Abeta oligomers to neuronal cultures: 93%±4%

## COc1cc(CCC(C)NCc2ccc(C(F)(F)F)cc2)ccc1O (stereo not drawn) [CT0109]
[2]
  Affects Synapse density in the absence of Aβ: No
[3]; [16]
  Measured efficacy: +
[3]; [17]
  Measured efficacy: +
[3]
  Behavioral efficacy: Yes
[6]; [18]
  concentration at 24 h: 0.041 µM
[6]; [19]
  concentration at 24 h: 0.266 µM
[1]; 15 µM added 1 hr prior to synthetic Abeta oligomers 3 µM
  restoration of trafficking: restores trafficking to vehicle-treated levels
[1]; [14]
  EC50: 4.07 µM
[1]; [15]
  EC50: 4.1 µM
[1]; Rattus norvegicus, Table S1, read-out: Block Aβ-induced membrane trafficking deficits EC50
  EC50: 2.2 µM
[1]; [10]
  EC50: 3.24 µM
[1]; [11]
  EC50: 3.2 µM
[1]
  Schild slope: 1
  reversal of trafficking deficit caused by human patient derived Abeta: reverse the trafficking deficit
  effect on trafficking of compound alone: without affecting trafficking on their own; also recorded: without affecting vesicles on its own
sigma-2/PGRMC1 receptor
  Ki: 0.009 µM
[4]
  prevention of Abeta oligomer-induced fear memory deficits: completely prevented fear memory deficits
  effect on fear memory when administered alone: no effect on memory
Abeta 1–42 oligomers
  dissociation of preformed oligomers: not by CT0109 or CT0093
[7]
  displacement of Abeta oligomers: 44%±3%
  prevention of binding of Abeta oligomers to neuronal cultures: 99%±7%

## CC12CC3CC(C)(C1)CC(N)(C3)C2 [memantine, reference compound]
[1]; control compound vs Abeta oligomers
  doses weakly blocking oligomer effects: above 100 µM

## C[N+](C)(C)CCCCCC[N+](C)(C)C [hexamethonium bromide, reference compound]
[1]
  activity in blocking effects of Abeta oligomers: only memantine was active

## Synthetic oligomers (low concentration): Abeta 1–42 oligomers formed at 500 nM, high molecular weight fraction from Sephadex G-75 [reference compound]
[1]
  Treatment duration for maximum response: 1 h
[1]; [9]
  EC50: 0.0027 µM
